Data reported in patent publication US11414431B2, “Substituted pyrazolo[1,5-a]pyrimidines as TYK2 inhibitors” (Nimbus Lakshmi, Inc., priority 2018, dated 2022).

system: IL-12 induced STAT4 phosphorlyation mediated by TYK2/JAK2; test: IL-12 Induced pSTAT4 in Human PBMC; format: cell-based; conditions: 1.7 ng/mL IL-12 for 30 minutes
Outline: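 Thawed human PBMC pre-incubated with compound 1 hr at 37° C (0.1% DMSO final), then stimulated 30 minutes with IL-12 at 1.7 ng/mL final. pSTAT4 and total STAT4 measured in cell lysates with MSD reagents.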

| SMILES | IC50 [µM] |
| --- | --- |
| CNc1cc(-c2cn(CC(=O)N3CCOCC3)c3ncccc23)nc2c(C(=O)N[C@H]3CC[C@@H]3OC)cnn12 [Compound I-963] | 0.1 to 0.5 |
| CNc1cc(-c2cn(CC(=O)N3CCCC3)c3ncccc23)nc2c(C(=O)N[C@H]3CC[C@@H]3OC)cnn12 [Compound I-965] | < 0.1 |
| CNc1cc(Nc2cccn(C3CCOCC3)c2=O)nc2c(C(=O)N[C@@H]3CC[C@]3(O)C(F)(F)F)cnn12 [Compound I-976] | 0.1 to 0.5 |
| CNc1cc(-c2cn(C(C)C)c3nnccc23)nc2c(C(=O)NC3CC[C@@H]3OC)cnn12 (some centres unmarked) [Compound I-993] | < 0.1 |
| CNc1cc(-c2cn(C(C)C)c3nnccc23)nc2c(C(=O)N[C@H]3CC[C@H]3O)cnn12 [Compound I-1000] | 0.5 to 1 |
| CNc1cc(-c2cn(C(C)C)c3nnccc23)nc2c(C(=O)N[C@@H]3CC[C@H]3OC)cnn12 [Compound I-1009] | < 0.1 |
| CNc1cc(-c2cn([C@H]3CC(=O)N(C)C3)c3ncccc23)nc2c(C(=O)NC3CC[C@@H]3OC)cnn12 (some centres unmarked) [Compound I-1017] | 0.1 to 0.5 |
| CNc1cc(-c2cn([C@@H]3CC(=O)N(C)C3)c3ncccc23)nc2c(C(=O)N[C@H]3CC[C@@H]3OC)cnn12 [Compound I-1022] | 0.1 to 0.5 |
| CNc1cc(-c2cn([C@H]3CC(=O)N(C)C3)c3ncccc23)nc2c(C(=O)N[C@H]3CC[C@@H]3OC)cnn12 [Compound I-1024] | < 0.1 |
| CNc1cc(-c2cn([C@H]3CC(=O)N(C4CCOCC4)C3)c3ncccc23)nc2c(C(=O)NC3CC[C@@H]3OC)cnn12 (some centres unmarked) [Compound I-1027] | 0.1 to 0.5 |
| CNc1cc(-c2cn([C@@H]3CC(=O)N(C4CCOCC4)C3)c3ncccc23)nc2c(C(=O)N[C@H]3CC[C@@H]3OC)cnn12 [Compound I-1028] | 0.1 to 0.5 |

The next lines start with the values.

| IC50 [µM] | SMILES |
| --- | --- |
| > 1 | CNc1cc(-c2cnc3n(CC(=O)N4CCC4)cccc2-3)nc2c(C(=O)N[C@H]3CC[C@@H]3OC)cnn12 [Compound I-977] |
| < 0.1 | CNc1cc(-c2cnc3n(CC(C)(C)O)cccc2-3)nc2c(C(=O)N[C@H]3CC[C@@H]3OC)cnn12 [Compound I-983] |
| < 0.1 | CNc1cc(-c2cnc3n(CCCN4CCOCC4)cccc2-3)nc2c(C(=O)N[C@H]3CC[C@@H]3OC)cnn12 [Compound I-990] |
| < 0.1 | CNc1cc(-c2cnc3n([C@@H]4CCOC4)cccc2-3)nc2c(C(=O)NC3CC[C@@H]3OC)cnn12 (some centres unmarked) [Compound I-995] |
| 0.1 to 0.5 | CO[C@H]1CCC1NC(=O)c1cnn2c(N)cc(-c3cnc4n([C@H]5COC[C@@H]5OC)cccc3-4)nc12 (some centres unmarked) [Compound I-999] |
| < 0.1 | CNc1cc(-c2cnc3n([C@H]4CCOC4)cccc2-3)nc2c(C(=O)N[C@H]3CC[C@@H]3OC)cnn12 [Compound I-1002] |
| < 0.1 | CNc1cc(-c2cnc3n([C@@H]4CCOC4)cccc2-3)nc2c(C(=O)N[C@H]3CC[C@@H]3OC)cnn12 [Compound I-1004] |
| 0.1 to 0.5 | CNc1cc(-c2cnc3n([C@@H]4CCOC4)cccc2-3)nc2c(C(=O)N[C@@H]3CC[C@H]3OC)cnn12 [Compound I-1005] |
| < 0.1 | CO[C@H]1CC[C@@H]1NC(=O)c1cnn2c(N)cc(-c3cnc4n([C@H]5COC[C@@H]5OC)cccc3-4)nc12 [Compound I-1006] |
| 0.1 to 0.5 | CO[C@H]1CC[C@@H]1NC(=O)c1cnn2c(N)cc(-c3cnc4n([C@@H]5COC[C@H]5OC)cccc3-4)nc12 [Compound I-1010] |
| 0.1 to 0.5 | CNc1cc(-c2cn([C@H]3CC(=O)N(C4CCOCC4)C3)c3ncccc23)nc2c(C(=O)N[C@H]3CC[C@@H]3OC)cnn12 [Compound I-1030] |

same assay, conditions: 0.5 h, 1.7 ng/mL IL-12 for 30 minutes

| SMILES | IC50 [µM] |
| --- | --- |
| CNc1cc(-c2cn([C@@H]3CC(=O)N(C)C3)c3ncccc23)nc2c(C(=O)NC3CC[C@@H]3OC)cnn12 (stereo partly drawn) [Compound I-1016, N-(2-methoxycyclobutyl)-5-(1-((R)-1-methyl-5-oxopyrrolidin-3-yl)-1H-pyrrolo[2,3-b]pyridin-3-yl)-7-(methylamino)pyrazolo[1,5-a]pyrimidine-3-carboxamide] | 0.1 to 0.5 |
| CNc1cc(-c2cn([C@H]3CO[C@@H](COC)C3)c3ncccc23)nc2c(C(=O)N[C@H]3CC[C@@H]3OC)cnn12 [Compound I-1018, N-((1S,2S)-2-methoxycyclobutyl)-5-(1-(5-(methoxymethyl)tetrahydrofuran-3-yl)-1H-pyrrolo[2,3-b]pyridin-3-yl)-7-(methylamino)pyrazolo[1,5-a]pyrimidine-3-carboxamide] | < 0.1 |

Second part, the compound after the results:

| IC50 [µM] | SMILES |
| --- | --- |
| < 0.1 | CNc1cc(-c2cnc3n([C@H]4CCOC4)cccc2-3)nc2c(C(=O)NC3CC[C@@H]3OC)cnn12 (stereo partly drawn) [Compound I-994, N-(2-methoxycyclobutyl)-7-(methylamino)-5-(7-((S)-tetrahydrofuran-3-yl)-7H-pyrrolo[2,3-b]pyridin-3-yl)pyrazolo[1,5-a]pyrimidine-3-carboxamide] |
| 0.1 to 0.5 | CNc1cc(-c2cn([C@@H]3CC(=O)N(C4CCOCC4)C3)c3ncccc23)nc2c(C(=O)NC3CC[C@@H]3OC)cnn12 (stereo partly drawn) [Compound I-1026, N-(2-methoxycyclobutyl)-7-(methylamino)-5-(1-((R)-5-oxo-1-(tetrahydro-2H-pyran-4-yl)pyrrolidin-3-yl)-1H-pyrrolo[2,3-b]pyridin-3-yl)pyrazolo[1,5-a]pyrimidine-3-carboxamide] |

molecular target: human TYK2 (JH2domain-pseudokinase) (Homo sapiens (Human), UniProt P29597); test: TYK2 JH2 Domain Binding Assay (KINOMEscan); conditions: 11-point 3-fold dilution, top concentration 30,000 nM, duplicate; read-out: hTYK2_JH2_Binding (Kd; nM)
Experimental: Binding constants for compounds of the present invention against the JH2 domain were determined by the following protocol for a KINOMEscan® assay (DiscoveRx). A fusion protein of a partial length construct of human TYK2 (JH2domain-pseudokinase) (amino acids G556 to D888 based on reference sequence NP_003322.3) and the DNA binding domain of NFkB was expressed in transiently transfected HEK293 cells. From these HEK 293 cells, extracts were prepared in M-PER extraction buffer (Pierce) in the presence of Protease Inhibitor Cocktail Complete (Roche) and Phosphatase Inhibitor Cocktail Set II (Merck) per manufacturers' instructions. The TYK2(JH2domain-pseudokinase) fusion protein was labeled with a chimeric double-stranded DNA tag containing the NFkB binding site (5′-[…]-3′) fused to an amplicon for qPCR readout, which was added directly to the expression extract (the final concentration of DNA-tag in the binding reaction is 0.1 nM).
The liganded beads were blocked with excess biotin and washed with blocking buffer (SeaBlock (Pierce), 1% BSA, 0.05% Tween 20, 1 mM DTT) to remove unbound ligand and to reduce nonspecific binding.
Extracts were loaded with DNA-tag and diluted into the binding reaction in a two step process. First extracts were diluted 1:100 in 1× binding buffer (PBS/0.05% Tween 20/10 mM DTT/0.1% BSA/2 μg/ml sonicated salmon sperm DNA) containing 10 nM DNA-tag. This dilution was allowed to equilibrate at room temperature for 15 minutes and then subsequently diluted 1:100 in 1× binding buffer. […] Kds were determined using an 11-point 3-fold compound dilution series with three DMSO control points. […] The compounds were then diluted directly into the assays such that the final concentration of DMSO was 0.9%. All reactions performed in polypropylene 384-well plates. Each was a final volume of 0.02 mL. Assays were incubated with shaking for 1 hour at room temperature. Then the beads were pelleted and washed with wash buffer (lx PBS, 0.05% Tween 20) to remove displaced kinase and test compound. […] The qPCR protocol consisted of a 10 minute hot start at 95° C., followed by 35 cycles of 95° C. for 15 seconds, 60° C. for 1 minute.
Kds were determined using an 11-point 3-fold compound dilution series with three DMSO control points. […] The compounds were then diluted directly into the assays such that the final concentration of DMSO was 0.9%. The Kds were determined using a compound top concentration of 30,000 nM. Kd measurements were performed in duplicate.
Binding constants (Kds) were calculated with a standard dose-response curve using the Hill equation: […]
The Hill Slope was set to −1.

Chain of human TYK2 (JH2domain-pseudokinase) (P29597 556-888): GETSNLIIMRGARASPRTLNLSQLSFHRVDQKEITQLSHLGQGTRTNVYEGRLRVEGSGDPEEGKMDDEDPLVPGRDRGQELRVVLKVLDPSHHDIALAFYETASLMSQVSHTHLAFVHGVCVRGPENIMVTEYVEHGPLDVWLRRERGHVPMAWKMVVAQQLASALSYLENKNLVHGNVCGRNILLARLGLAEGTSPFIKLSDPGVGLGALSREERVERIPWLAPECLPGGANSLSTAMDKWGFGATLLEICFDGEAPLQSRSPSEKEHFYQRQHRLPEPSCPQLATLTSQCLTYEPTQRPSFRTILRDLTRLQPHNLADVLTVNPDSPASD

| Kd [nM] | SMILES |
| --- | --- |
| 0.2 to 1 | CNc1cc(Nc2cccn(-c3ncco3)c2=O)nc2c(C(=O)NC3CC[C@@H](OC)C3)cnn12 (mixture of isomers) [Compound I-71, N-((trans-1,3)-3-Methoxycyclopentyl)-7-(methylamino)-5-((1-(oxazol-2-yl)-2-oxo-1,2-dihydropyridin-3-yl)amino)pyrazolo[1,5-a]pyrimidine-3-carboxamide] |
| < 0.2 | CNc1cc(-c2cnc3n(CC(=O)N4CC5(COC5)C4)cccc2-3)nc2c(C(=O)NC3CC[C@@H]3OC)cnn12 (mixture of isomers) [Compound I-970] |
| 0.2 to 1 | CNc1cc(Nc2cccn([C@H]3CCC[C@@](C)(O)C3)c2=O)nc2c(C(=O)NC3CC3)cnn12 [Compound I-2, N-Cyclopropyl-5-((1-((1S,3R)-3-hydroxy-3-methylcyclohexyl)-2-oxo-1,2-dihydropyridin-3-yl)amino)-7-(methylamino)pyrazolo[1,5-a]pyrimidine-3-carboxamide] |
| < 0.2 | CNc1cc(Nc2cccn([C@H]3C[C@@H](OC)C3)c2=O)nc2c(C(=O)NC3CC3)cnn12 [Compound I-5, N-Cyclopropyl-5-((1-((1s,3s)-3-methoxycyclobutyl)-2-oxo-1,2-dihydropyridin-3-yl)amino)-7-(methylamino)pyrazolo[1,5-a]pyrimidine-3-carboxamide] |
| < 0.2 | CNc1cc(Nc2cccn([C@H]3C[C@@H](OC)C3)c2=O)nc2c(C(=O)N[C@@H]3C[C@@H]3F)cnn12 [Compound I-9, N-((1R,2S)-2-Fluorocyclopropyl)-5-((1-((1s,3S)-3-methoxycyclobutyl)-2-oxo-1,2-dihydropyridin-3-yl)amino)-7-(methylamino)pyrazolo[1,5-a]pyrimidine-3-carboxamide] |
| 0.2 to 1 | CNc1cc(Nc2cccn([C@H]3C[C@@H]3F)c2=O)nc2c(C(=O)N[C@@H]3CC[C@@H]3O)cnn12 [Compound I-13, 5-((1-((1S,2S)-2-Fluorocyclopropyl)-2-oxo-1,2-dihydropyridin-3-yl)amino)-N-((1R,2S)-2-hydroxycyclobutyl)-7-(methylamino)pyrazolo[1,5-a]pyrimidine-3-carboxamide] |
